ChEMBL document CHEMBL5120749, “Human estrogen receptor α antagonists, part 2: Synthesis driven by rational design, in vitro antiproliferative, and in vivo anticancer evaluation of innovative coumarin-related antiestrogens as breast cancer suppressants” (Eur J Med Chem, 2022)

Tests used:
[1] = molecular target: T1, Estrogen receptor (Homo sapiens) (UniProt P03372); details: filed as antagonist
T1 sequence (whole entry): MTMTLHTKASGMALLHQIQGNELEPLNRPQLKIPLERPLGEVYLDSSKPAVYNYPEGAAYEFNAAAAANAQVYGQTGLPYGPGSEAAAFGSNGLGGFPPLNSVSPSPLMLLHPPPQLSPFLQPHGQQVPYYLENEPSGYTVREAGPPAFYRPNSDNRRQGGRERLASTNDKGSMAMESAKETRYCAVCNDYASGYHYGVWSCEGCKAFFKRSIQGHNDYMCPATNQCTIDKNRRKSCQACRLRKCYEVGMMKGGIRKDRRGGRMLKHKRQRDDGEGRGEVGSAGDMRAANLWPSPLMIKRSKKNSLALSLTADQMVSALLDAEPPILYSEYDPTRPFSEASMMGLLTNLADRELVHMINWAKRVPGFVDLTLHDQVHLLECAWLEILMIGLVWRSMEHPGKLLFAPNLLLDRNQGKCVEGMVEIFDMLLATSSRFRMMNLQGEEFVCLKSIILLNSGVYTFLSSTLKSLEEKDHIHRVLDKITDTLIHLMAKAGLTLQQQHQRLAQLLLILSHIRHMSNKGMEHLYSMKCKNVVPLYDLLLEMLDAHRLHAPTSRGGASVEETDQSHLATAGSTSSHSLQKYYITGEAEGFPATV
Description: (§1) Antagonist activity at ERalpha (unknown origin)

[2] = molecular target: T2, Progesterone receptor (Homo sapiens, UniProt P06401)
T2 sequence (P06401 whole entry): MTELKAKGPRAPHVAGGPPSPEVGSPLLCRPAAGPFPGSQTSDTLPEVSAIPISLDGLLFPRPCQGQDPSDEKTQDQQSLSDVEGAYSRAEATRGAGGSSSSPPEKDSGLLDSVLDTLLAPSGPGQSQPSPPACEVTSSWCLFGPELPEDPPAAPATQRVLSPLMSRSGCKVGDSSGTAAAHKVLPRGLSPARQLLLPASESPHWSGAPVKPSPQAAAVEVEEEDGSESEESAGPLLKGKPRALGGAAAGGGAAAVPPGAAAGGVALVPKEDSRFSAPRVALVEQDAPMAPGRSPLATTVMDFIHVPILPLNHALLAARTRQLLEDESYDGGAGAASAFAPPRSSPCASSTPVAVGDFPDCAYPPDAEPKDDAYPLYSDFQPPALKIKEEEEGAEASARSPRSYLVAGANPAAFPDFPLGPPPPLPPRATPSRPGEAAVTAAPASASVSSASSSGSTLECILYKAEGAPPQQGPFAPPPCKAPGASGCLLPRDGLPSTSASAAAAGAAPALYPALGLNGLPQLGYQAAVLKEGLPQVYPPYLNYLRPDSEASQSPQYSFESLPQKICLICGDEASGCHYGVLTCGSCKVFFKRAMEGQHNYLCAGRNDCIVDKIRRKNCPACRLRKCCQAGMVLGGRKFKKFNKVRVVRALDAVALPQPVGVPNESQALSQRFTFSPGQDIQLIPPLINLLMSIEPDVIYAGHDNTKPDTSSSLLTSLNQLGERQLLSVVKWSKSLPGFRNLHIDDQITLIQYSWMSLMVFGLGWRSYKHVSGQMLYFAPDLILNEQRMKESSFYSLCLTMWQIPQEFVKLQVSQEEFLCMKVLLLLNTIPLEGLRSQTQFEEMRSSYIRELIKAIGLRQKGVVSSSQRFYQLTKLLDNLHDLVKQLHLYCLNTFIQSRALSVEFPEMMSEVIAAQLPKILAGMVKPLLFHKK
Description: Antagonist activity at progesterone receptor in human MCF7 cells

[3] = molecular target: T3, Estrogen receptor beta (Homo sapiens, UniProt Q92731); details: filed as antagonist
T3 sequence (Q92731 whole entry): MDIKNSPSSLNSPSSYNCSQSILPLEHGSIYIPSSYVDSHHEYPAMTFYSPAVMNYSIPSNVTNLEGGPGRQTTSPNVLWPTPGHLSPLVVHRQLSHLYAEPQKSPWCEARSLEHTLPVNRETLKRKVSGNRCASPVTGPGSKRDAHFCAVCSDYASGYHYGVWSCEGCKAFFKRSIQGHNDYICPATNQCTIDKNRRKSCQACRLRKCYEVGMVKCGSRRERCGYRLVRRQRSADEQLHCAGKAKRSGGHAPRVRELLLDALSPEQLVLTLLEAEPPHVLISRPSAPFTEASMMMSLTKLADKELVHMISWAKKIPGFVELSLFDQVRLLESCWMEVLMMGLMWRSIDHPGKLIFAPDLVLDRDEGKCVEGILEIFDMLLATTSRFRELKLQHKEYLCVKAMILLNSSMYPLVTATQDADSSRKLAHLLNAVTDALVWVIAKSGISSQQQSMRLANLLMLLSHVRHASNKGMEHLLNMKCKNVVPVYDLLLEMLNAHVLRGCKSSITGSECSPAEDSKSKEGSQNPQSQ
Description: Relative binding affinity to ERbeta (unknown origin)

[4] = molecular target: T4, Estrogen receptor (Homo sapiens, UniProt P03372)
T4 sequence (P03372 whole entry): T1 sequence (whole entry)
Description: Antagonist activity at ERalpha in human MCF7 cells assessed as downregulation of ERalpha

[5] = molecular target: T1, Estrogen receptor (Homo sapiens); details: filed as antagonist; remark: listed apart in the source
Description: Relative binding affinity to ERalpha (unknown origin)

[6] = molecular target: T3, Estrogen receptor beta
Description: (§2) Antagonist activity at ERbeta (unknown origin)

[7] = physchem; details: octanol/water
Description: (§3) Lipophilicity, logD of the compound by shake-flask method

[8] = in vivo; details: rat, po, 5 mg/kg
[9] = in vivo; details: rat, po, 50 mg/kg
[10] = tested on: Ishikawa; test: cells; details: Homo sapiens
Description: Antiproliferative activity against human Ishikawa cells

[11] = molecular target: T4, Estrogen receptor; remark: listed apart in the source
Description: as §1

[12] = molecular target: T3, Estrogen receptor beta; details: filed as antagonist; remark: listed apart in the source
Description: as §2

[13] = tested on: MDA-MB-231; test: cells; details: Homo sapiens
Description: Antiproliferative activity against human MDA-MB-231 cells

[14] = tested on: MRC5; test: cells; details: Homo sapiens
Description: Antiproliferative activity against human MRC5 cells

[15] = tested on: MCF7; test: cells; details: Homo sapiens
Description: Antiproliferative activity against human MCF7 cells

[16] = octanol/water
Description: as §3

| SMILES | Ka [1] [nM] | IC50 [2] [nM] | log(RBA) [3] | IC50 [4] [nM] | log(RBA) [5] | IC50 [6] [nM] | logD [7] | bioavailability [8] [%] | bioavailability [9] [%] | IC50 [10] [nM] | IC50 [11] [nM] | Ka [12] [nM] | IC50 [13] [nM] | IC50 [15] [nM] | logD [16] | IC50 [14] [nM] |
| --- | --- | --- | --- | --- | --- | --- | --- | --- | --- | --- | --- | --- | --- | --- | --- | --- |
| CNCCOc1ccc(N2Nc3c(c(=O)oc4cc(O)ccc34)-c3ccc(O)cc32)cc1 | 36.1 |  | 0.49 |  | -0.26 | 28.8 |  |  |  |  | 161 | 16.2 |  |  |  |  |
| O=C(COCN1CCCCC1)CN1Nc2c(c(=O)oc3cc(O)ccc23)-c2ccc(O)cc21 | 84.3 |  | 0.38 |  | -0.63 | 36.8 |  |  |  |  | 375 | 20.7 |  |  |  |  |
| CC/C(=C(\c1ccc(O)cc1)c1ccc(OCCN(C)C)cc1)c1ccccc1 [AFIMOXIFENE] |  | > 100 |  |  |  |  | 3.62 | 87 | 94 | 1.27 |  |  | 36.8 | 1.2 |  | > 100 |
| Nc1ccc(-c2c(C(=O)c3ccc(OCCN4CC(C(=O)O)=CCC4=O)cc3)c3ccc(O)cc3oc2=O)cc1 |  | > 100 |  | > 100 |  |  |  |  |  |  | 39 |  |  |  |  |  |
| O=C(c1ccc(OCCN2CCCCC2)cc1)c1c(-c2ccc(O)cc2)sc2cc(O)ccc12 [RALOXIFENE] |  |  | 0.08 |  |  |  |  | 93 | 96 | 0.94 |  | 41.2 | 92.3 | 0.89 | 2.37 |  |
| Cc1cc(N2Nc3cc(O)ccc3-c3c2c2ccc(O)cc2oc3=O)ccc1OCCN1CCC=C(C(=O)O)C1 |  | > 100 |  |  |  | 98.2 |  |  |  |  |  |  |  |  |  |  |
| Cc1cc(N2Nc3c(c(=O)oc4cc(O)ccc34)-c3ccc(O)cc32)ccc1OCCN1CCC=C(C(=O)O)C1 | 32.3 |  | 0.29 |  | -0.21 | 45.4 |  |  |  |  | 144 | 25.5 |  |  |  |  |
| CC(CN1CCCC2CCCNC21)OCC(=O)N1NC2c3ccc(O)cc3OCC2c2ccc(O)cc21 (configuration not stated) |  |  |  |  |  |  |  |  |  |  | 168 |  |  |  |  |  |

Further lines, with some results ahead:

| Ka [1] [nM] | IC50 [2] [nM] | log(RBA) [3] | IC50 [4] [nM] | log(RBA) [5] | IC50 [6] [nM] | logD [7] | bioavailability [8] [%] | bioavailability [9] [%] | IC50 [10] [nM] | IC50 [11] [nM] | Ka [12] [nM] | IC50 [13] [nM] | IC50 [15] [nM] | logD [16] | SMILES | IC50 [14] [nM] |
| --- | --- | --- | --- | --- | --- | --- | --- | --- | --- | --- | --- | --- | --- | --- | --- | --- |
| 0.08 | > 100 | 0.05 | > 100 | 2.36 | 79.5 | 1.78 | 91 | 94 | 0.54 | 0.39 | 44.7 | 75.7 | 0.45 |  | Nc1ccc(-c2c(C(=O)c3ccc(OCCNS(=O)(=O)O)cc3)c3ccc(O)cc3oc2=O)cc1 | > 100 |
| 0.04 | > 100 | 0.09 | > 100 | 2.38 | 72.5 | 1.86 | 88 | 91 | 0.41 | 37 | 40.7 | 77 | 0.44 |  | Nc1ccc(-c2c(C(=O)c3ccc(OCCN4CC(C(=O)O)=CCC4=O)cc3)c3ccc(O)cc3[nH]c2=O)cc1 | > 100 |
| 0.04 | > 100 | -0.06 | > 100 | 2.67 | 102 | 2.14 | 91 | 96 | 0.34 | 0.19 | 57.6 | 91.8 | 0.25 |  | Cc1cc(C(=O)CNc2c(-c3ccc(O)cc3)c(=O)oc3cc(O)ccc23)ccc1OCCN1CCC=C(C(=O)O)C1 | > 100 |
|  | > 100 |  | > 100 |  |  |  |  |  |  | 1.13 |  |  |  |  | Cc1cc(C(=O)C2=C(c3ccc(O)cc3)COc3cc(O)ccc32)ccc1OCCN1Cc2cccnc2C1 |  |
|  | > 100 |  | > 100 |  |  |  |  |  |  | 1.05 |  |  |  |  | Cc1cc(C(=O)C2=C(c3ccc(O)cc3)COc3cc(O)ccc32)ccc1OCCN1C=Cc2cccnc2C1 |  |
|  | > 100 |  | > 100 |  |  |  |  |  |  | 0.33 |  |  |  |  | CNCCOc1ccc(N2Nc3cc(O)ccc3-c3c2c2ccc(O)cc2oc3=O)cc1 |  |
| 0.17 | > 100 | 0.19 | > 100 | 2.07 | 5730 |  |  |  | 0.89 | 0.75 | 32.2 | 41.5 | 0.93 |  | O=C(c1ccc(OCCN2C(=O)CCC2=O)cc1)c1c(-c2ccc(O)cc2)oc(=O)c2cc(O)ccc12 | > 100 |
| 0.17 | > 100 | 0.01 | > 100 | 2.07 | 86.4 |  |  |  | 0.96 | 0.76 | 48.5 | 41.8 | 1.03 |  | O=C(COCN1CCCCC1)CN1Nc2cc(O)ccc2-c2c1c1ccc(O)cc1oc2=O | > 100 |
| 0.16 | > 100 | 0.32 | > 100 | 2.1 | 42.7 |  |  |  | 0.76 | 0.71 | 24 | 41.7 | 0.8 |  | O=C(c1ccc(OCCN2C=Cc3ccccc3C2)cc1)c1c(-c2ccc(O)cc2)oc(=O)c2cc(O)ccc12 | > 100 |
| 0.15 | > 100 | 0.12 | > 100 | 2.12 | 67.1 |  |  |  | 0.77 | 0.67 | 37.7 | 51.5 | 0.73 |  | CC(CN1CCCC2CCCNC21)OCC(=O)N1Nc2cc(O)ccc2C2COc3cc(O)ccc3C21 (configuration not stated) | > 100 |
